Laboratory results published in PMC10490032, “From Monoamine Oxidase Inhibition to Antiproliferative Activity: New Biological Perspectives for Polyamine Analogs” (Molecules, 2023).
“Also recorded” adds a separate entry of the source.

T1: human recombinant MAO B (Homo sapiens, UniProt P27338)
T1 sequence (P27338 1-520): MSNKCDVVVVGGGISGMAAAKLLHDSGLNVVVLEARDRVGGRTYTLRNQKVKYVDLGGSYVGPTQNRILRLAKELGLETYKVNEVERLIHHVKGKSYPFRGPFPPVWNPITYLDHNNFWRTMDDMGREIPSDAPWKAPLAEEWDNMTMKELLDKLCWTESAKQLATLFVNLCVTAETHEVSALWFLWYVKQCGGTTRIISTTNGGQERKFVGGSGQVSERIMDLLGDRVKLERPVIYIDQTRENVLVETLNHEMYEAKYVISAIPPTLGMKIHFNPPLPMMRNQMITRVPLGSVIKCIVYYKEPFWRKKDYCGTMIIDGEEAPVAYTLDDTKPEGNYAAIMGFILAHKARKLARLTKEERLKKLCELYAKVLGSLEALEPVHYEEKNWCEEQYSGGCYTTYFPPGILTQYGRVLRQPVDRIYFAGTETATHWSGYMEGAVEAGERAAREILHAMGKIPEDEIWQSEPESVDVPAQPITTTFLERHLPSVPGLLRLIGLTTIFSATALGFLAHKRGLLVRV

T2: human recombinant MAO A (Homo sapiens, UniProt P21397)
T2 sequence (P21397 1-527): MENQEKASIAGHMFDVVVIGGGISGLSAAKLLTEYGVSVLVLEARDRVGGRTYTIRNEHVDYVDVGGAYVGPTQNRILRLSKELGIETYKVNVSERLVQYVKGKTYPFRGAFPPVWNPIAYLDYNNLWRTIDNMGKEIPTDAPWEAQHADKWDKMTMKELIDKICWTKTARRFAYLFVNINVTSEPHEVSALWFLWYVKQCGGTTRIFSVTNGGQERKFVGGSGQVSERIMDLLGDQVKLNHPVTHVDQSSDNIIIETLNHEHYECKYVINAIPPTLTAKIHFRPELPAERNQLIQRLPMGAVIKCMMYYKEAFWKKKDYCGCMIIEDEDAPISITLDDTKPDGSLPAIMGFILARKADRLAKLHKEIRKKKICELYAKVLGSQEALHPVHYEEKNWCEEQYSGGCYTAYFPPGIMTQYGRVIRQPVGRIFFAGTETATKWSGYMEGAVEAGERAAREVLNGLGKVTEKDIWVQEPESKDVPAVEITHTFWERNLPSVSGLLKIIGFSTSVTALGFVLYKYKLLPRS

T3: human VAP-1 (Homo sapiens, UniProt Q16853)
T3 sequence (Q16853 1-763): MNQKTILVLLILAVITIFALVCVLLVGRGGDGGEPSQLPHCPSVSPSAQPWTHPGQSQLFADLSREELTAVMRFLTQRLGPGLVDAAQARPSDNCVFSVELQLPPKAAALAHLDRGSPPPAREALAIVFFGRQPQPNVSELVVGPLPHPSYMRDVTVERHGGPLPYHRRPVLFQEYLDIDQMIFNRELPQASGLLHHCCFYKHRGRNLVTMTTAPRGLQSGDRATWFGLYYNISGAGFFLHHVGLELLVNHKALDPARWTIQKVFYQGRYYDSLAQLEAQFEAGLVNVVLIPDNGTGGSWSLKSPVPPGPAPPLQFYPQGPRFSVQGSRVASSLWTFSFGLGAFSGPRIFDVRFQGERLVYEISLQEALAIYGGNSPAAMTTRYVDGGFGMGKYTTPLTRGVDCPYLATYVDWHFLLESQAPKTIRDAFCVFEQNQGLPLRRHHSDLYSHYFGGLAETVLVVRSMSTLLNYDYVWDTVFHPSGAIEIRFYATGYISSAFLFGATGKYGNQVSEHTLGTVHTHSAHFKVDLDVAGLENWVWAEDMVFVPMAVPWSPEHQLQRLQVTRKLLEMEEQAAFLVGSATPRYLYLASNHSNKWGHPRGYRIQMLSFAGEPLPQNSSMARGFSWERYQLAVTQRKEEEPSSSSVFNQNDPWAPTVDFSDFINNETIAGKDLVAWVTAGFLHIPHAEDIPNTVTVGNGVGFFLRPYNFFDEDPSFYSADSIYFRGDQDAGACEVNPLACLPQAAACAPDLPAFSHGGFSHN


How the values were obtained:
[1] = target: T1, human recombinant MAO B; design: purchased Merk s.r.l; (Italy); host or cells: baculovirus-infected BT1 cells; method as in PMID 21858471; conditions: previous study ref 35; cited from earlier work
[2] = target: T1, human recombinant MAO B; assay: MAO B inhibition, kynuramine assay (4-hydroxyquinoline fluorescence); conditions: MAO B Ki, human recombinant MAO B; kynuramine 10 μM; from slope of Vo/VI vs compound concentration (1.25–40 μM); mean ± S.D.
[3] = target: T2, human recombinant MAO A; assay: MAO A inhibition, kynuramine assay (4-hydroxyquinoline fluorescence); conditions: MAO A Ki, human recombinant MAO A; kynuramine 10 μM; from slope of Vo/VI vs compound concentration (1.25–40 μM); mean ± S.D.
[4] = system: MAO; assay: Test of compounds as potential MAO substrates, Amplex Red/horseradish peroxidase coupled method; format: biochemical, human; conditions: up to a 50 μM concentration
Protocol: Before evaluating the potential MAO inhibitory capability of derivatives 2–7, kinetic experiments were performed to assay their behaviors as potential MAO substrates by using the Amplex Red/horseradish peroxidase coupled method, which detects the hydrogen peroxide produced by the amine oxidase enzyme activity in the presence of an amine substrate. […] Thus, for the subsequent inhibition studies, an assay method that used kynuramine as the MAO substrate and detected the production of 4-hydroxyquinoline (formed from the aldehyde reaction product) was applied.
Except for compound 4, no significant interference of the other polyamine analogs with the preliminary calibration curves was observed. […] The evaluations of the effects of compounds 1–7 on the MAO activity were performed by using a kynuramine assay due to the interferences of compound 4 with the Amplex Red method.

[5] = system: LN-229 glioblastoma cell line; assay: Inhibition growth assay, Trypan blue exclusion; format: cell-based, human; conditions: Homo sapiens, LN-229, 48 h, LN-229, 48 h of incubation; mean ± SD of five independent experiments in duplicate
Source text: On this basis, we investigated the antiproliferative effect of compounds 1–7 on LN-229, a human glioblastoma cell line. Compound 1 and the well-known antitumor drug doxorubicin were taken as references. […] The data in Table 3 support the lack of cytotoxicity of compound 1.
The LN-229 (human glioblastoma) was purchased from the American Type Culture Collection (ATCC) and cultured in DMEM (D2902, Sigma Chemical Co., St. Louis, MO, USA) supplemented with 3.5 g/L of glucose and 5% heat-inactivated fetal calf serum (FCS) (F7524, Sigma Chemical Co.), respectively. A total of 100 U/mL of penicillin, 100 μg/mL of streptomycin, and 0.25 μg/mL of amphotericin B (Sigma Chemical Co.) were added to the medium. Cells were cultured at 37 °C in a humidified atmosphere incubator containing 5% carbon dioxide in air.
Cells (3–6 × 10^4/well) were seeded into a 24-well cell culture plate; after 24 h, different concentrations of the test compounds or reference drug were added. After 48 h of incubation in standard conditions, the cell viability was determined by using a Trypan blue exclusion assay. Briefly, cells were detached by using a […] and 0.3 mM EDTA solution in PBS and stained with 0.1% Trypan blue solution in PBS. Unstained viable cells were immediately counted in a Burker chamber. The percentage of viable cells was calculated with respect to the untreated control culture. […] The goodness of the fit was expressed by the r^2 coefficient, and the best fit report included the analysis of variance corrected for the mean of the observations with the p values (p < 0.005 for all the tested compounds). Data are the means ± SD of at least five independent experiments in duplicate.

[6] = target: T4, murine SMOX (Mus musculus, UniProt Q99K82); design: made in house; host or cells: E. coli BL21 DE3; conditions: previous studies ref 35, 40; cited from earlier work
[7] = target: T3, human VAP-1; design: Biothie Therapies Cor; (Turku, Finland), gift; method as in PMID 21858471, PMID 30829081; conditions: previous studies ref 35, 40; cited from earlier work
[8] = target: T3, human VAP-1; assay: VAP-1 amine oxidase activity, Amplex Red/horseradish peroxidase assay, benzylamine as substrate; conditions: up to a 50 μM concentration
[9] = target: T4, murine SMOX; assay: SMOX amine oxidase activity, Amplex Red/horseradish peroxidase assay, spermine as substrate; conditions: up to a 50 μM concentration
[10] = substrate: NCCC(=O)c1ccccc1N; assay: purified protein, by the assay type; conditions: other: substrate, human recombinant MAO A; pH 7.4; 37.0 °C

T4 sequence (Q99K82 whole entry): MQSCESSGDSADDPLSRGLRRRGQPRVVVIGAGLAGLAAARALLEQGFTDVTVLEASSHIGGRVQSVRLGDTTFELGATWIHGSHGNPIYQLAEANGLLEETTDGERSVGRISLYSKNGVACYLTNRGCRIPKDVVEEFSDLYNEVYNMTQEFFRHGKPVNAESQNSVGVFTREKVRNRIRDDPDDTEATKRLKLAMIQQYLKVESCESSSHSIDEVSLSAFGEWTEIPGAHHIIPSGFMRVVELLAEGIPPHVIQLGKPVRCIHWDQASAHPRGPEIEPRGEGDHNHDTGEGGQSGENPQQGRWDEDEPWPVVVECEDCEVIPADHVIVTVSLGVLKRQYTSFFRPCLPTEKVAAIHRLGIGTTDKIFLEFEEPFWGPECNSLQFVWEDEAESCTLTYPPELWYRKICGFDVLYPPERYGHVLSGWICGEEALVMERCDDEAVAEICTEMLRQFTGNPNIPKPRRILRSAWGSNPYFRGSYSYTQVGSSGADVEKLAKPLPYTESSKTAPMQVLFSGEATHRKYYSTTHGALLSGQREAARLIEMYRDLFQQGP

Row | Molecule | Mode of inhibition of MAO B [1] | Ki [2] [µM] | Ki [3] [µM] | Behaviour as MAO substrate [4] | GI50 [5] [µM] | Inhibition of SMOX [6] | Inhibition of VAP-1 [7] | Behaviour as VAP-1 substrate [8] | Behaviour as SMOX substrate [9] | Km [10] [µM]
1 | COc1ccccc1CNCCCCCCN1CCC(CCC2CCN(CCCCCCNCc3ccccc3OC)CC2)CC1 [Compound 2] | mainly competitive/mixed; also recorded: reversible mixed-type | 330 ± 30 | 247 ± 42 | did not act as substrates | 4.6 ± 1.1 | poor inhibitor | poor inhibitor |  |  | 
2 | COc1ccccc1CNCCCCCC(=O)N1CCC(CCC2CCN(C(=O)CCCCCNCc3ccccc3OC)CC2)CC1 [Compound 3] |  | 19 ± 2 | 70 ± 7 | did not act as substrates | 2.2 ± 0.9 |  |  | not substrates | not substrates | 
3 | human recombinant MAO A (Homo sapiens) (protein) MENQEKASIAGHMFDVVVIGGGISGLSAAKLLTEYGVSVLVLEARDRVGGRTYTIRNEHVDYVDVGGAYVGPTQNRILRLSKELGIETYKVNVSERLVQYVKGKTYPFRGAFPPVWNPIAYLDYNNLWRTIDNMGKEIPTDAPWEAQHADKWDKMTMKELIDKICWTKTARRFAYLFVNINVTSEPHEVSALWFLWYVKQCGGTTRIFSVTNGGQERKFVGGSGQVSERIMDLLGDQVKLNHPVTHVDQSSDNIIIETLNHEHYECKYVINAIPPTLTAKIHFRPELPAERNQLIQRLPMGAVIKCMMYYKEAFWKKKDYCGCMIIEDEDAPISITLDDTKPDGSLPAIMGFILARKADRLAKLHKEIRKKKICELYAKVLGSQEALHPVHYEEKNWCEEQYSGGCYTAYFPPGIMTQYGRVIRQPVGRIFFAGTETATKWSGYMEGAVEAGERAAREVLNGLGKVTEKDIWVQEPESKDVPAVEITHTFWERNLPSVSGLLKIIGFSTSVTALGFVLYKYKLLPRS |  |  |  |  |  |  |  |  |  | 32 ± 11
